Results on 3 molecules are retold here after article PMC11858205, “Radiolabeling and Preliminary In Vivo Evaluation of the Candidate CCR2 Targeting PET Radioligand [^11C]AZD2423” (Pharmaceuticals, 2025).

Each structure is given as a SMILES string.

For orientation: IC50 means the concentration needed to halve the response being measured. Usually LogD stands for the decadic logarithm of the distribution of all forms, ionised or not, between an organic phase and buffer at a given pH. A word on the pKa: it is the pH at which an ionisable group is half protonated.

On the set-up of data set [1]: method as in PMID 26116114. The conditions noted are these: brain tissue in vitro; cited from earlier work.
Data set [2] concerns CCR2. More on the design: method as in PMID 23523116, PMID 29913894. The settings on record: no method in this paper; read-out: CCR2 IC50 (affinity); cited from earlier work.
Details of data set [3]: method as in PMID 23523116, PMID 29913894. The settings on record: no method in this paper; cited from earlier work.
For another data set, the system named is CCR1. Also on record: method as in PMID 23523116, PMID 29913894. The settings on record: no method in this paper; cited from earlier work.
The subject of the next data set is CCR5. Also on record: method as in PMID 23523116, PMID 29913894. The conditions noted are these: no method in this paper; cited from earlier work.
Data set [4] is described as follows: Stability of the radioligand in formulation. The class given is physicochemical. The settings on record: 9% ethanol in PBS, pH 7.4. The procedure:
Carbon-11 labeled radioligands for in vivo PET imaging studies are typically produced in giga-becquerel quantities. As our goal was to develop a synthesis methodology suitable for routine radioligand production, the [^11C]AZD2423 synthesis process was fully automated to improve its reliability and reproducibility. The complete process was performed using a previously described [^11C]CO prototype synthesis apparatus (GEMS, Uppsala, Sweden), which included the initial formation of the crude [^11C]AZD2423 product, followed by its isolation by semipreparative high-performance liquid chromatography (HPLC), solid-phase extraction (SPE), and sterile filtration to yield the formulated product. Using these conditions, [^11C]AZD2423 was prepared with radioactivities exceeding 1 GBq and the radiochemical purity (RCP) was greater than 99%. The synthesis process took approximately 40 min, and the molar activity (Am) at the time of injection ranged from 15 to 20 GBq/μmol (405 to 540 Ci/mmol). […] The average radiochemical yield for the synthesis of [^11C]AZD2423 was 7.4 ± 0.6% (n = 4, relative to the [^11C]CO2 at the start of synthesis). The identity of the labeled compound was verified by co-injecting it with a reference standard.

Data set [5] is described as follows: Radiometabolite analysis in arterial plasma. The class given is in vivo, rhesus monkeys. The protocol: To measure parent radioligand and radiometabolites in plasma, discrete arterial blood samples were drawn at five time points after the injection of [^11C]AZD2423. The radioligand was metabolized rather slowly (Figure 5). At 10 min after injection, approximately 80% of the radioactivity in plasma represented parent radioligand, decreasing to approximately 60% at 90 min. Most radiometabolites detected in plasma eluted with a retention time (tR) of 2.1–2.7 min and were thus less lipophilic than [^11C]AZD2423 (tR = 3.0 min). However, one metabolite with a longer retention time (tR = 3.5 min) was formed (see Supporting Information). These metabolites were not identified and further work would be required to fully characterize these unknown radiometabolites. […]
Two PET measurements were performed on the same experimental day in each of the two monkeys. […] Radioactivity in the brain was continuously measured for 123 min using the high-resolution research tomograph (HRRT; Siemens Molecular Imaging, Knoxville, TN, USA), following a preprogrammed sequence of 34 frames. Arterial blood samples were collected at specified time points (4, 15, 30, 45, and 90 min) and analyzed for radioactivity in blood and plasma, as well as for the presence of the remaining parent compound, [^11C]AZD2423.
Method description and representative radioactivity HPLC trace for radiometabolite analysis. […]

In data set [6] the target is T1, CCR2 (Macaca mulatta, UniProt O18793).
T1 construct: from tissue; host or cells: living rhesus monkeys: brain, thyroid gland, parotid gland, submandibular gland
T1 sequence (O18793 1-360): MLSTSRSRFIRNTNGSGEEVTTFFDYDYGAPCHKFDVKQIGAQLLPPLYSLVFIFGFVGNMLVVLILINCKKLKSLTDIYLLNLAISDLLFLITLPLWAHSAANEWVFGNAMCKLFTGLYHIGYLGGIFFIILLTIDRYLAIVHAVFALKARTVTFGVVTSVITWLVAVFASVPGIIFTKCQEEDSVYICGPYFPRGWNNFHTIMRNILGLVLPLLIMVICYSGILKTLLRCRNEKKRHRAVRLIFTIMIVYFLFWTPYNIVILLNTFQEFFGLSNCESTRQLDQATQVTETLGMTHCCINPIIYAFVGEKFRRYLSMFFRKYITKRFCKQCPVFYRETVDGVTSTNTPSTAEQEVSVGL
Nature of the data set: PET imaging in non-human primates at baseline and after pretreatment with AZD2423. The class given is in vivo, rhesus monkeys. The conditions noted are these: for SUVpeak brain: iv; for Average VT parotid gland / Average VT thyroid gland: two-tissue compartment analysis. The protocol:
To evaluate the brain exposure and regional distribution of [^11C]AZD2423 in non-human primate (NHP) brains, PET imaging studies were carried out. Thus, two 123 min dynamic brain PET measurements were performed at baseline and after pretreatment with unlabeled AZD2423 (3 mg/kg), respectively.
PET experiments were conducted on two anesthetized healthy rhesus monkeys weighing 5.3 and 4.7 kg. The study received approval from the Stockholm Animal Research Ethical Committee (Dnr. N452/11) and is comprehensively described in Dahl et al.. Anesthesia was induced via an intramuscular injection of ketamine hydrochloride (approximately 10 mg/kg, Ketalar, Pfizer AB, Stockholm, Sweden) and maintained with a mixture of sevoflurane (2–8%, Abbott Scandinavia AB, Solna, Sweden), oxygen (around 40%), and medical air following endotracheal intubation. The anesthesia level was continuously monitored during the experiment. The head was stabilized using a fixation device, and the body temperature was regulated with a Bair Hugger model 505 (Arizant Healthcare, St. Paul, MN, USA), with continuous monitoring via an esophageal thermometer. ECG, heart rate, blood pressure, respiratory rate, and oxygen saturation were all continuously monitored throughout the experiments.
Two PET measurements were performed on the same experimental day in each of the two monkeys. Baseline PET measurements were conducted using [^11C]AZD2423 with doses of 164 MBq and 157 MBq. A pretreatment PET measurement was also performed, during which an infusion of unlabeled AZD2423 (3.0 mg/kg) occurred over 10 min, starting 30 min before the injection of [^11C]AZD2423 (90 MBq and 158 MBq). In each PET experiment, the radioligand was administered as an intravenous bolus injection over 5 s, coinciding with the start of PET data acquisition. Radioactivity in the brain was continuously measured for 123 min using the high-resolution research tomograph (HRRT; Siemens Molecular Imaging, Knoxville, TN, USA), following a preprogrammed sequence of 34 frames. Arterial blood samples were collected at specified time points (4, 15, 30, 45, and 90 min) and analyzed for radioactivity in blood and plasma, as well as for the presence of the remaining parent compound, [^11C]AZD2423.
The Regions of Interest (ROIs) were delineated manually on MRI images of each NHP for the whole brain, thyroid gland, parotid gland, and submandibular gland. The summed PET images of the entire duration were co-registered with the MRI image of the individual NHP. After applying the co-registration parameters to the dynamic PET data, time–activity curves were generated for all ROIs for each PET measurement. The average SUV was calculated for each ROI. Target occupancy was estimated using the volume of distribution (VT) calculated by a two-tissue compartment model (2TC) with metabolite-corrected plasma radioactivity.

The subject of another data set is Other GPCR. More on the design: method as in PMID 23523116, PMID 29913894. The settings on record: no method in this paper; cited from earlier work.
Data set [7] deals with CCR2. More on the design: method as in PMID 33205603. The conditions noted are these: cited from earlier work.
Where [8] appears, read: pretreatment AZD2423 3 mg/kg relative to baseline.
Where [9] appears, read: pretreatment AZD2423 3.0 mg/kg relative to baseline.
Where [10] appears, read: pretreatment AZD2423 3 mg/kg, n = 2.

As to `CC(C)(C)N1CCNC(C(=O)N2CCN(C(=O)Nc3ccc(Cl)c(F)c3)CC2)C1` (stereo not drawn) [AZD2423], in [1], the “Fu (brain) / brain slice distribution” value was 0.045. In addition, the half-maximal inhibitory concentration (IC50) in the data set with CCR2 [2] is 2.6 nM. Also, the LogD in data set [3] was 1.85.
With `CC(C)(C)N1CCNC(C(=O)N2CCN([11C](=O)Nc3ccc(Cl)c(F)c3)CC2)C1` (stereo not drawn) [[^11C]AZD2423], the IC50 in the data set with CCR1 is above 10000 nM. Further, in data set [1], the “Fu (brain) / brain slice distribution” value is reported as 0.045. Moreover, the IC50 in the data set with CCR5 is above 510 nM. Besides, the stability in formulation result in data set [4] is “up to 60 min”. Moreover, the “Parent radioligand, share of radioactivity in plasma” value in [5] (10 min after iv injection) is given as “approximately 80%”. For the same molecule, the “Parent radioligand, share of radioactivity in plasma” value in [5] (90 min after iv injection) was “approximately 60%”. Besides, on CCR2 [6] (NHP, after pretreatment with unlabeled AZD2423 3 mg/kg, n = 2), the SUVpeak brain came out at 0.4. At CCR2 [6] (NHP, baseline, n = 2), the SUVpeak brain came out at 0.4, the SUVpeak parotid gland turned out to be 3.4, the SUVpeak submandibular gland came to 4.4 and the SUVpeak thyroid gland is 3.3. Also, on CCR2 [6] (baseline, n = 2), the “Average VT parotid gland” value stood at 111.1 and the “Average VT thyroid gland” value was found to be 53.1. Also, on CCR2 [6] (setting [8]), the “Percentage decrease of VT parotid gland” value is recorded as 62.6% and the “Percentage decrease of VT thyroid gland” value amounted to 63.4%. Moreover, on CCR2 [6] (setting [9]), the “Percentage reduction of binding in the parotid gland (AUC ratio)” value came out at 51.2% and the “Percentage reduction of binding in the submandibular gland (AUC ratio)” value is 49%. Besides, on CCR2 [6] (setting [10]), the “Average VT parotid gland” value amounted to 41.6 and the “Average VT thyroid gland” value worked out at 19.4. In addition, the concentration for half-maximal inhibition (IC50) in the data set with CCR2 [2] was 2.6 nM. The “Selectivity over other GPCR” value in the data set with Other GPCR was above 500 fold. In data set [3], the LogD is 1.85 and the pKa was 7.9.
For the molecule `CN(CCc1ccc(NC(=O)C2=Cc3cc(-c4ccc(OCCCCC[18F])cc4)ccc3CCC2)cc1)C1CCOCC1` [[^18F]6b], in the data set with CCR2 [7], the “in vitro affinity to CCR2” value is listed as 14 nM.
